From paper PMC5242521 (PLoS ONE, 2017)
Like-named read-outs stand apart in the source and are kept apart here.

What was measured:
OAT3 = molecular target: T1, OAT3 (Homo sapiens, UniProt Q8TCC7); experiment: OAT3 activity: fluorescein accumulation in HEK-OAT3 cells; settings: for effect on OAT3 activity: pyrethroid 100 μM; for inhibition at 100 μM: human, pH 7.4
T1 sequence (Q8TCC7 1-542): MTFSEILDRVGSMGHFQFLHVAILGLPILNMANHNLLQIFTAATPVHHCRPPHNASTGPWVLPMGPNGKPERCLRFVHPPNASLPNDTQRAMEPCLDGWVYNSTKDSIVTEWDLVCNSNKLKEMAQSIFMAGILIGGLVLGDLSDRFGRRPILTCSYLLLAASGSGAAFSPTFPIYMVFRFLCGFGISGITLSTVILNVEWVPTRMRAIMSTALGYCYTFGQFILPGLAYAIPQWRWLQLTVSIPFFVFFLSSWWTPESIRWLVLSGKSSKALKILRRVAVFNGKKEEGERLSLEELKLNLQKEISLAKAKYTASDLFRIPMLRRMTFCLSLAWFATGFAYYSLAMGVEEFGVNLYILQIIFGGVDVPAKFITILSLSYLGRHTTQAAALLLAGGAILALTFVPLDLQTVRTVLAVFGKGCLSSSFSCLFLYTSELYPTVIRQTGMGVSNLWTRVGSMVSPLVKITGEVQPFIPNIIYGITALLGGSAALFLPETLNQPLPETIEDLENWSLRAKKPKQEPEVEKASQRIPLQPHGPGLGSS
Protocol: (§1) The effects of pyrethroids on activity of ABC and SLC transporters were determined through measuring cellular accumulation or retention of fluorescent or radiolabeled reference substrates for transporters, in the presence or absence of reference inhibitors, as previously described. The nature of cells and reference substrates and inhibitors used for transport assays are summarized in S3 Table.
For accumulation assays (performed for all transporters, excepted BCRP), transporter-expressing cells usually cultured in 48-well plates were first incubated at 37°C with reference substrates in the absence (control) or presence of pyrethroids or reference inhibitors, in a well-defined transport assay medium, consisting of 136 mM NaCl, 5.3 mM KCl, 1.1mM KH2PO4, 0.8 mM MgSO4, 1.8 mM CaCl2, 10 mM HEPES, 11 mM D-glucose and adjusted to pH = 7.4 (excepted for MATE transporter assays, for which pH was set to 8.4). The nature of substrates and reference inhibitors and the incubation times with substrates, that varied according to the transporter, were selected in agreement with previous studies and are indicated in S3 Table. The total incubation volume with substrates was 200 μL/well. After washing twice in phosphate-buffered saline (PBS) (200 μL/well/washing), cells were lysed in distilled water (155 μL/well). An aliquot of cell lysate (5 μL) was then taken for determining cellular protein content by the Bradford method. The rest of lysate (150 μL/well) was used for measuring intracellular accumulation of reference substrates by scintillation counting or spectrofluorimetry using a SpectraMax Gemini SX spectrofluorometer (Molecular Devices, Sunnyvale, CA, USA) (excitation and emission wavelengths were 485 and 535 nm, respectively, for rhodamine 123 and fluorescein, and 355 and 460 nm, respectively, for DAPI).
(§2) Intracellular concentrations of reference substrates were initially expressed as fluorescence arbitrary units (for fluorescent dye substrates) or as moles (for radiolabeled substrates) and normalized to cellular protein content, determined by the Bradford method. They were finally used for calculating percentage of transporter activity, according to the following equations [41, 45]: %ABCtransporter activity=([Substrateref inh]-[Substratepyrethroid])×100/([Substrateref inh]-[Substratecontrol]) (1) %SLC transporter activity=([Substratepyrethroid]-[Substratref inh])×100/([Substratecontrol]-[Substrateref inh]) (2) with [Substratepyrethroid] = cellular concentration of reference substrate in the presence of pyrethroid, [Substrateref inh] = cellular concentration of reference substrate in the presence of reference inhibitor and [Substratecontrol] = cellular concentration of reference substrate in control cells not exposed to pyrethroid or reference inhibitor.
(§3) The initial tested concentration of pyrethroids was 100 μM. […] Such concentrations were calculated using GraphPad Prism software (GraphPad Software, La Jolla, CA), through nonlinear regression based on the four parameter logistic function using the following equations: […]

OCT2 = molecular target: T2, OCT2 (Homo sapiens, UniProt O15244); experiment: OCT2 activity: rhodamine 123 accumulation in HEK-OCT2 cells; settings: for effect on OCT2 activity: pyrethroid 100 μM
T2 sequence (O15244 1-555): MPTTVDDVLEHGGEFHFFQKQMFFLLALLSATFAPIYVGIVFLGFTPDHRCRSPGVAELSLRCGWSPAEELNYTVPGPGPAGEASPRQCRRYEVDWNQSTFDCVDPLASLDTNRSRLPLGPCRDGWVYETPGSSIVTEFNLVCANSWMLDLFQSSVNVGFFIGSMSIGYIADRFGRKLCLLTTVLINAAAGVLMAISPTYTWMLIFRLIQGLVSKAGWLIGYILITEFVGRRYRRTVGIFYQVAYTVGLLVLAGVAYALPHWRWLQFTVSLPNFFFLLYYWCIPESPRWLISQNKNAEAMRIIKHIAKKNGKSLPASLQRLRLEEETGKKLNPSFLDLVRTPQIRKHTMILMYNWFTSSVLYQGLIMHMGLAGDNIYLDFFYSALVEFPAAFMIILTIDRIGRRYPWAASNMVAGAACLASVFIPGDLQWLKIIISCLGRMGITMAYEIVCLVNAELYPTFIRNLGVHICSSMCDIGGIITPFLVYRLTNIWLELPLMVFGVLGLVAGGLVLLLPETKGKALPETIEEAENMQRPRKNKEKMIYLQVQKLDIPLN
Protocol: as §1
The nature of substrates and reference inhibitors and the incubation times with substrates, that varied according to the transporter, were selected in agreement with previous studies and are indicated in S3 Table. The total incubation volume with substrates was 200 μL/well. […] An aliquot of cell lysate (5 μL) was then taken for determining cellular protein content by the Bradford method.
as §2, §3

OAT1 = molecular target: T3, OAT1 (Homo sapiens, UniProt Q4U2R8); experiment: OAT1 activity: fluorescein accumulation in HEK-OAT1 cells; format: cell-based
T3 construct: host or cells: HEK293
T3 sequence (Q4U2R8 1-563): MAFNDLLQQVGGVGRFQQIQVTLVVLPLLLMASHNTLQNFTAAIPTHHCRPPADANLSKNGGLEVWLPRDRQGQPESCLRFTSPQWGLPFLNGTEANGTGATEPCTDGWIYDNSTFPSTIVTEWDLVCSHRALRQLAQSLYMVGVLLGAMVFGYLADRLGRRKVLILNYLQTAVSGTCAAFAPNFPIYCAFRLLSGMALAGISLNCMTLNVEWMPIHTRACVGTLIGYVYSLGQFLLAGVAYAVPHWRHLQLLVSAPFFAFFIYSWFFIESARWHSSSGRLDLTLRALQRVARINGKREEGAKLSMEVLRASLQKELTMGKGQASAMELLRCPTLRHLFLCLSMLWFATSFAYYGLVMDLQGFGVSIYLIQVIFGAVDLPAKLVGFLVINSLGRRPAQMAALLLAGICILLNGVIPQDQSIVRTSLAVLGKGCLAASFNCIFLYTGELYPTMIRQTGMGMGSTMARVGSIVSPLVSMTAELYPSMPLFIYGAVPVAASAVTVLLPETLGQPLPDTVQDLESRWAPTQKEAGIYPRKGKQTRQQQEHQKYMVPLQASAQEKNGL
Protocol: The effects of pyrethroids on activity of ABC and SLC transporters were determined through measuring cellular accumulation or retention of fluorescent or radiolabeled reference substrates for transporters, in the presence or absence of reference inhibitors, as previously described [41].
The total incubation volume with substrates was 200 μL/well. […] An aliquot of cell lysate (5 μL) was then taken for determining cellular protein content by the Bradford method [44].
Intracellular concentrations of reference substrates were initially expressed as fluorescence arbitrary units (for fluorescent dye substrates) or as moles (for radiolabeled substrates) and normalized to cellular protein content, determined by the Bradford method [44]. They were finally used for calculating percentage of transporter activity, according to the following equations [41, 45]: %ABCtransporter activity=([Substrateref inh]-[Substratepyrethroid])×100/([Substrateref inh]-[Substratecontrol]) (1) %SLC transporter activity=([Substratepyrethroid]-[Substratref inh])×100/([Substratecontrol]-[Substrateref inh]) (2) with [Substratepyrethroid] = cellular concentration of reference substrate in the presence of pyrethroid, [Substrateref inh] = cellular concentration of reference substrate in the presence of reference inhibitor and [Substratecontrol] = cellular concentration of reference substrate in control cells not exposed to pyrethroid or reference inhibitor.

| SMILES | effect on OAT3 activity (OAT3) | effect on OCT2 activity (OCT2) | effect on OAT1 activity (OAT1; pyrethroid up to 100 μM) | IC50 (OAT3) | inhibition at 100 μM (OAT3) | IC50 (OCT2) | effect on OAT1 activity (OAT1; pyrethroid up to 100 μM, listed as Allethrin) | effect on OAT1 activity (OAT1) |
| --- | --- | --- | --- | --- | --- | --- | --- | --- |
| C#CCN1CC(=O)N(COC(=O)[C@@H]2C(C=C(C)C)C2(C)C)C1=O (mixture of isomers) [imiprothrin] | inhibited | inhibited | failed to alter |  |  |  |  |  |
| C=CCC1=C(C)C(OC(=O)C2C(C=C(C)C)C2(C)C)CC1=O (centres unmarked) [allethrin] |  | markedly inhibit | failed to alter | 69.4 µM | 74.8% | 42.6 µM | No effect (up to 100 μM) |  |
| C#CCC1=C(C)C(OC(=O)C2C(C=C(C)C)C2(C)C)CC1=O (centres unmarked) [prallethrin] | inhibited | inhibited | failed to alter |  |  |  |  |  |
| CC(C)=CC1C(C(=O)OCN2C(=O)C3=C(CCCC3)C2=O)C1(C)C (centres unmarked) [tetramethrin] |  | markedly inhibit |  | 77.6 µM | 69.3% | 11.2 µM |  | No effect (up to 100 μM) |
